{"source": "patent US8927547B2", "about": "“Pyrimidine derivatives” (Noviga Research AB, priority 2010, dated 2015)", "data": [{"system": "CCRF-CEM cancer cells - leukaemia", "assay": "Fluorometric Microculture Cytotoxicity Assay (FMCA), CCRF-CEM", "type": "cell-based", "settings": "Homo sapiens, 72 h incubation", "text": "The Fluorometric Microculture Cytotoxicity Assay, FMCA, is a three day non-clonogenic microplate-based cell viability assay used for measurement of the cytotoxic and/or cytostatic effect of compounds in vitro (Lindhagen, E., et al. Nat Protoc, 2008. 3(8): p. 1364-9). FMCA (Larsson, R. and P. Nygren, Anticancer Res, 1989. 9(4): p. 1111-9) represents a valuable method to measure cytotoxicity in a number of cell types, both cell lines and primary cells from patients (Larsson, R., et al., Int J Cancer, 1992. 50(2): p. 177-85; Fridborg, H., et al., Eur J Cancer, 1999. 35(3): p. 424-32; Dhar, S., et al., Br J Cancer, 1996. 74(6): p. 888-96).\nFMCA is based on the principle that fluorescein diacetate (FDA) is converted to the fluorescent probe fluorescein by esterases in the plasma membranes of living cells. For experiments, 96 or 384-well microplates are prepared with compounds and stored at −70° C. until use. Cells are then seeded into the drug-prepared plates and placed in an incubator for 72 h. On the last day of incubation, the plates are washed and a buffer containing FDA is added and incubated with the cells for 45 minutes. Finally the fluorescence per well is measured in a fluorometer and a Survival Index % (SI) for each compound-treated well is calculated with the equation: Compound-treated cells minus blank divided by control cells minus blank. A high SI-value indicates a large percentage of living cells and vice versa.\nIn subsequent experiments, compounds were tested, along with kinase inhibitors (dasatinib, pazopanib, sorafenib, and sunitinib) as described above. Initially, the acute lymphoblastic leukaemia cell line CCRF-CEM (see e.g. Foley G E, et al. Cancer 1965, 18, 522-529) was used throughout. In the assay plates, medium was added to six empty wells (blank wells) and wells were filled with PBS and cell suspension and served as control wells. SI-values were then calculated for each compound-treated well as described above. All experiments were conducted twice and a new batch of plates was prepared for each experiment.\nFor dose-response experiments, 384-well plates were prepared as follows:\nCompounds of the invention as well as kinase inhibitors sorafenib, sunitinib, dasatinib, and pazopanib (reference compounds) were diluted with PBS to a concentration which was ten-times higher than the desired starting concentration. Then, a Biomek 2000 liquid handling system was employed to serially dilute the compounds in a deep-well 384-well plate. From this plate, assay plates containing 5 μl compound per well were prepared with the Biomek 2000. Certain compounds precipitated when diluted with PBS, and these compounds were therefore prepared in a 96-well plate manually as described above using culture medium RPMI 1640 instead of PBS.\nThe compounds were also tested at five concentrations, with five times serial dilution on the following cell types: CCRF-CEM, hTERT-RPE1 (normal retinal epithelial cells), hRPTEpiC (normal renal cells) and PBMC (peripheral blood mononuclear cells). Each experiment was performed three times, except for PBMC and hRPTEpiC, which were performed twice. SI-values were calculated, graphs were plotted using GraphPadPrism 5.0 (GraphPad Software Inc. La Jolla, Calif.) and EC50-values for each cell type and compound were determined from the curves.", "units": {"EC50": "µM"}, "values": [{"compound": "c1cc(NCc2ccc3[nH]ccc3c2)nc(Nc2ccc3[nH]ccc3c2)n1", "note": "[Example 2, N^4-(1H-indol-5-ylmethyl)-N^2-(1H-indol-5-yl)pyrimidine-2,4-diamine]", "EC50": 4.83}, {"compound": "Cc1cc2cc(Nc3nccc(NCc4ccc5[nH]ccc5c4)n3)ccc2[nH]1", "note": "[Example 3, N^4-(1H-indol-5-ylmethyl)-N^2-(2-methyl-1H-indol-5-yl)pyrimidine-2,4-diamine]", "EC50": 4.25}, {"compound": "c1cc(NCc2ccc3[nH]ccc3c2)nc(Nc2ccc3[nH]ncc3c2)n1", "note": "[Example 4, N^4-(1H-indol-5-ylmethyl)-N^2-(1H-indazol-5-yl)pyrimidine-2,4-diamine]", "EC50": 4.07}, {"compound": "c1ccc2c(CCNc3nccc(NCc4ccc5[nH]ccc5c4)n3)c[nH]c2c1", "note": "[Example 9, N^2-[2-(1H-indol-3-yl)ethyl]-N^4-(1H-indol-5-ylmethyl)pyrimidine-2,4-diamine]", "EC50": 8.73}, {"compound": "Oc1ccc2[nH]cc(CCNc3nccc(NCc4ccc5[nH]ccc5c4)n3)c2c1", "note": "[Example 10, 3-{2-[4-(1H-indol-5-ylmethylamino)-pyrimidin-2-ylamino]ethyl}-1H-indol-5-ol]", "EC50": 10.2}, {"compound": "Cc1ccc2[nH]cc(CCNc3nccc(NCc4ccc5[nH]ccc5c4)n3)c2c1", "note": "[Example 11, N^4-(1H-indol-5-ylmethyl)-N^2-[2-(5-methyl-1H-indol-3-yl)ethyl]pyrimidine-2,4-diamine]", "EC50": 2.88}, {"compound": "Cc1cc2cc(CNc3ccnc(Nc4cccc5[nH]ccc45)n3)ccc2[nH]1", "note": "[Example 13, N^2-(1H-indol-4-yl)-N^4-(2-methyl-1H-indol-5-ylmethyl)pyrimidine-2,4-diamine]", "EC50": 0.55}, {"compound": "Cc1cc2cc(CNc3ccnc(NCCc4c[nH]c5ccccc45)n3)ccc2[nH]1", "note": "[Example 17, N^2-(2-(1H-indol-3-yl)-ethyl)-N^4-(2-methyl-1H-indol-5-ylmethyl)pyrimidine-2,4-diamine]", "EC50": 7.28}, {"compound": "c1cc(Nc2nccc(NCc3ccc4[nH]ncc4c3)n2)c2cc[nH]c2c1", "note": "[Example 18, N^2-(1H-indol-4-yl)-N^4-(1H-indazol-5-ylmethyl)pyrimidine-2,4-diamine]", "EC50": 0.71}, {"compound": "c1cc(Nc2nccc(NCc3ccc4cc[nH]c4c3)n2)c2cc[nH]c2c1", "note": "[Example 20, N^4-(1H-indol-6-ylmethyl)-N^2-(1H-indol-4-yl)pyrimidine-2,4-diamine]", "EC50": 1.01}, {"compound": "c1cc(Nc2ccnc(NCc3ccc4[nH]ccc4c3)n2)c2cc[nH]c2c1", "note": "[Example 23, N^2-(1H-indol-5-ylmethyl)-N^4-(1H-indol-4-yl)pyrimidine-2,4-diamine]", "EC50": 1.62}, {"compound": "c1ccc2c(CCNc3ccnc(NCc4ccc5[nH]ccc5c4)n3)c[nH]c2c1", "note": "[Example 25, N^4-[2-(1H-indol-3-yl)ethyl]-N^2-(1H-indol-5-ylmethyl)pyrimidine-2,4-diamine]", "EC50": 3.16}, {"compound": "Oc1ccc2[nH]cc(CCNc3ccnc(NCc4ccc5[nH]ccc5c4)n3)c2c1", "note": "[Example 26, 3-{2-[2-(1H-indol-5-ylmethylamino)-pyrimidin-4-ylamino]ethyl}-1H-indol-5-ol]", "EC50": 7.01}, {"compound": "Cc1ccc2[nH]cc(CCNc3ccnc(NCc4ccc5[nH]ccc5c4)n3)c2c1", "note": "[Example 27, N^2-(1H-indol-5-ylmethyl)-N^4-[2-(5-methyl-1H-indol-3-yl)ethyl]pyrimidine-2,4-diamine]", "EC50": 4.17}, {"compound": "COc1ccc2[nH]cc(CCNc3ccnc(NCc4ccc5[nH]ccc5c4)n3)c2c1", "note": "[Example 28, N^2-(1H-indol-5-ylmethyl)-N^4-[2-(5-methoxy-1H-indol-3-yl)ethyl]pyrimidine-2,4-diamine]", "EC50": 3.1}, {"compound": "c1cc(Nc2ccnc(NCc3ccc4[nH]ncc4c3)n2)c2cc[nH]c2c1", "note": "[Example 29, N^2-(1H-indazol-5-ylmethyl)-N^4-(1H-indol-4-yl)pyrimidine-2,4-diamine]", "EC50": 2.78}, {"compound": "Cc1cc(NCc2ccc3[nH]ccc3c2)nc(NCCc2c[nH]c3ccc(O)cc23)n1", "note": "[Example 32, 3-{2-[4-(1H-indol-5-ylmethylamino)-6-methyl-pyrimidin-2-ylamino]-ethyl}-1H-indol-5-ol]", "EC50": 7.81}, {"compound": "Cc1cc2cc(Nc3nc(NCc4ccc5[nH]ccc5c4)cc(C(F)(F)F)n3)ccc2[nH]1", "note": "[Example 33, N^4-(1H-indol-5-ylmethyl)-N^2-(2-methyl-1H-indol-5-yl)-6-trifluoromethylpyrimidine-2,4-diamine]", "EC50": 9.55}, {"compound": "FC(F)(F)c1cc(NCc2ccc3[nH]ccc3c2)nc(NCCc2c[nH]c3ccccc23)n1", "note": "[Example 35, N^2-(2-(1H-indol-3-yl)ethyl)-N^4-(1H-indol-5-ylmethyl)-6-trifluoromethylpyrimidine-2,4-diamine]", "EC50": 10.1}, {"compound": "Nc1cnc(Nc2cccc3[nH]ccc23)nc1NCc1ccc2[nH]ccc2c1", "note": "[Example 38, N^4-(1H-indol-5-ylmethyl)-N^2-(1H-indol-4-yl)pyrimidine-2,4,5-triamine]", "EC50": 4.33}, {"compound": "Nc1cnc(Nc2ccc3[nH]ccc3c2)nc1NCc1ccc2[nH]ccc2c1", "note": "[Example 39, N^4-(1H-indol-5-ylmethyl)-N^2-(1H-indol-5-yl)pyrimidine-2,4,5-triamine]", "EC50": 2.84}, {"compound": "Nc1cnc(Nc2ccc3cc[nH]c3c2)nc1NCc1ccc2[nH]ccc2c1", "note": "[Example 40, N^4-(1H-indol-5-ylmethyl)-N^2-(1H-indol-6-yl)pyrimidine-2,4,5-triamine]", "EC50": 4.17}, {"compound": "Cc1cc2cc(CNc3nccc(Nc4ccc5[nH]c(C)cc5c4)n3)ccc2[nH]1", "note": "[Example 63, N^4-(2-methyl-1H-indol-5-yl)-N^2-(2-methyl-1H-indol-5-ylmethyl)pyrimidine-2,4-diamine]", "EC50": 0.59}, {"compound": "Cc1cc2cc(Nc3ccnc(NCc4ccc5[nH]ncc5c4)n3)ccc2[nH]1", "note": "[Example 65, N^2-(1H-indazol-5-ylmethyl)-N^4-(2-methyl-1H-indol-5-yl)pyrimidine-2,4-diamine]", "EC50": 0.92}, {"compound": "COc1ccc2[nH]cc(CCNc3nccc(NCc4ccc5[nH]cnc5c4)n3)c2c1", "note": "[Example 69, N^4-(1H-benzo[d]imidazol-5-ylmethyl)-N^2-[2-(5-methoxy-1H-indol-3-yl)ethyl]pyrimidine-2,4-diamine]", "EC50": "< 10"}, {"compound": "Cc1cc2cc(Nc3ccnc(NCc4ccc5cc[nH]c5c4)n3)ccc2[nH]1", "note": "[Example 70, N^2-(1H-indol-6-ylmethyl)-N^4-(2-methyl-1H-indol-5-yl)pyrimidine-2,4-diamine]", "EC50": "< 10"}, {"compound": "COc1ccc2[nH]cc(CCNc3nccc(NCc4ccc5cc[nH]c5c4)n3)c2c1", "note": "[Example 71, N^4-(1H-indol-6-ylmethyl)-N^2-[2-(5-methoxy-1H-indol-3-yl)ethyl]pyrimidine-2,4-diamine]", "EC50": "< 10"}, {"compound": "c1ccc(COc2ccc3[nH]cc(CCNc4nccc(NCc5ccc6[nH]ccc6c5)n4)c3c2)cc1", "note": "[Example 72, N^4-(1H-indol-5-ylmethyl)-N^2-{2-[5-(benzyloxy)-1H-indol-3-yl]ethyl}pyrimidine-2,4-diamine]", "EC50": "< 10"}, {"compound": "c1cc(NCc2ccc3[nH]ccc3c2)nc(NCCc2c[nH]c3ccc(OCCN4CCOCC4)cc23)n1", "note": "[Example 73, N^4-(1H-indol-5-ylmethyl)-N^2-{2-[5-(2-morpholinoethoxy)-1H-indol-3-yl]ethyl}pyrimidine-2,4-diamine]", "EC50": "< 10"}, {"compound": "COCCOc1ccc2[nH]cc(CCNc3nccc(NCc4ccc5[nH]ccc5c4)n3)c2c1", "note": "[Example 74, N^4-(1H-indol-5-ylmethyl)-N^2-{2-[5-(2-methoxyethoxy)-1H-indol-3-yl]ethyl}pyrimidine-2,4-diamine]", "EC50": "< 10"}, {"compound": "Cn1ccc2c(Nc3nccc(NCc4ccc5[nH]ccc5c4)n3)cccc21", "note": "[Example 75, N^4-(1H-indol-5-ylmethyl)-N^2-(1-methyl-1H-indol-4-yl)pyrimidine-2,4-diamine]", "EC50": 0.61}, {"compound": "COC(=O)c1cc(Nc2nccc(NCc3ccc4[nH]ccc4c3)n2)c2cc[nH]c2c1", "note": "[Example 81, Methyl 4-[4-(1H-indol-5-ylmethylamino)pyrimidin-2-ylamino]-1H-indole-6-carboxylate]", "EC50": "< 10"}, {"compound": "c1cc(Nc2ccc3[nH]ccc3c2)nc(NCc2ccc3[nH]ccc3c2)n1", "note": "[Example 82, N^2-(1H-indol-5-ylmethyl)-N^4-(1H-indol-5-yl)pyrimidine-2,4-diamine]", "EC50": 0.49}]}]}
